Consider 1 molecule from US11084790B2, “Insoluble complex or solvate thereof, pharmaceutical composition and use thereof” (Fruithy Holdings Limited, priority 2017, dated 2021).

Where a name gives a salt, the structure may show the parent alone.

The term AUC(0-t) denotes the area under the concentration-time curve up to a stated or last time point. By Cmax is commonly meant the maximum level reached in the sampled fluid or tissue. As usually defined, the Tmax is the time from dosing to the highest level. A word on the half-life: it is the time needed for the level to fall by half in the phase considered. A lower half-life goes with rapid decline.

This data set is described as follows: Systemic pharmacokinetic study of a bis(bupivacaine) pamoate suspension after a single subcutaneous injection at three points in a hind limb in SD rats. It is filed as in vivo. The conditions noted are these: male, rat, sc, single subcutaneous injection at three points in left hind limb, 5 mg/kg, bupivacaine in blood. An excerpt: Systemic Pharmacokinetic Study of a bis(bupivacaine) pamoate Suspension After a Single Subcutaneously Injection at Three Points in a Hind Limb in SD Rats
The systemic absorption and exposure of bis(bupivacaine) pamoate in a rat body was further evaluated by performing a systemic pharmacokinetic research on SD rats which were subcutaneously injected with a bis(bupivacaine) pamoate suspension (Formulation Example 3) once at three points in a left hind limb and comparing with a commercial bupivacaine hydrochloride injection. The long-acting sustained release feature of bis(bupivacaine) pamoate was verified by comparing the pharmacokinetic parameters of bis(bupivacaine) pamoate with a commercial formulation.
In the example, 20 healthy SD male rats (Beijing Vital River Laboratory Animal Technology Co., Ltd., 190 to 210 g) were chosen and randomly divided into 2 groups, i.e., a group for Formulation Example 3 and a group for the commercial bupivacaine hydrochloride injection (Wuhu Kangqi Pharmaceutical Co., Ltd.) group, with 10 animals in each group.
About 0.5 mL of venous blood was collected at 30 min, 1 h, 2 h, 6 h, 8 h, 24 h, 48 h, 72 h and 96 h respectively after administration for both groups of laboratory animals for determining the blood drug concentration of bupivacaine.

For `CCCCN1CCCCC1C(=O)Nc1c(C)cccc1C` (stereo not shown) [bupivacaine hydrochloride], the AUC(0-t) is 711 ng·h/mL, the peak concentration (Cmax) is 330 ng/mL, the Tmax came to 37.8 min and the half-life is 60 min.
